Source: PubChem BioAssay (NCI)
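Compound exposure: 48 hours, 5 concentrations, 96-well plates. TGI: total growth inhibition.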

How the values were obtained:
Assay in all cases: DTP human tumour cell line panel, 48 h
[1] = system: RXF 393 renal
[2] = system: HCT-15 colon
[3] = system: SK-MEL-2 melanoma
[4] = system: KM12 colon
[5] = system: K-562 leukemia
[6] = system: MALME-3M melanoma
[7] = system: 786-0 renal
[8] = system: UO-31 renal
[9] = system: SK-MEL-28 melanoma
[10] = system: SNB-19 CNS
[11] = system: RPMI-8226 leukemia
[12] = system: SNB-75 CNS
[13] = system: HS 578T breast
[14] = system: DU-145 prostate
[15] = system: CAKI-1 renal
[16] = system: BT-549 breast
[17] = system: COLO 205 colon
[18] = system: T-47D breast
[19] = system: PC-3 prostate
[20] = system: SF-539 CNS
[21] = system: IGROV1 ovarian
[22] = system: MDA-N
[23] = system: HT29 colon
[24] = system: ACHN renal
[25] = system: OVCAR-4 ovarian
[26] = system: SK-MEL-5 melanoma
[27] = system: HOP-92 NSCLC
[28] = system: SF-295 CNS
[29] = system: UACC-257 melanoma
[30] = system: HL-60(TB) leukemia
[31] = system: EKVX NSCLC
[32] = system: SW-620 colon
[33] = system: M14 melanoma
[34] = system: SR leukemia
[35] = system: A498 renal
[36] = system: A549 NSCLC
[37] = system: MDA-MB-231 breast
[38] = system: SF-268 CNS
[39] = system: SK-OV-3 ovarian
[40] = system: U251 CNS
[41] = system: HCT-116 colon
[42] = system: MCF7 breast
[43] = system: MOLT-4 leukemia
[44] = system: NCI-H226 lung
[45] = system: CCRF-CEM leukemia
[46] = system: SN12C renal
[47] = system: NCI-H522 lung
[48] = system: OVCAR-5 ovarian
[49] = system: NCI-H23 lung
[50] = system: UACC-62 melanoma
[51] = system: TK-10 renal
[52] = system: NCI-H460 lung
[53] = system: MDA-MB-435
[54] = system: NCI/ADR-RES ovarian
[55] = system: OVCAR-3 ovarian
[56] = system: HOP-62 NSCLC
[57] = system: OVCAR-8 ovarian

N#Cc1cnc(-n2[nH]c3c(c2=O)CCCC3)[nH]c1=O
TGI [1]: > 100 µM
TGI [2]: > 100 µM
TGI [3]: > 100 µM
TGI [4]: > 100 µM
TGI [5]: > 100 µM
TGI [6]: > 100 µM
TGI [7]: > 100 µM
TGI [8]: > 100 µM
TGI [9]: > 100 µM
TGI [10]: > 100 µM
TGI [11]: > 100 µM
TGI [12]: 55.9 µM
TGI [13]: > 100 µM
TGI [14]: > 100 µM
TGI [15]: > 100 µM
TGI [16]: > 100 µM
TGI [17]: > 100 µM
TGI [18]: > 100 µM
TGI [19]: > 100 µM
TGI [20]: > 100 µM
TGI [21]: > 100 µM
TGI [22]: > 100 µM
TGI [23]: > 100 µM
TGI [24]: > 100 µM
TGI [25]: > 100 µM
TGI [26]: > 100 µM
TGI [27]: > 100 µM
TGI [28]: > 100 µM
TGI [29]: > 100 µM
TGI [30]: > 100 µM
TGI [31]: > 100 µM
TGI [32]: > 100 µM
TGI [33]: > 100 µM
TGI [34]: > 100 µM
TGI [35]: > 100 µM
TGI [36]: > 100 µM
TGI [37]: > 100 µM
TGI [38]: > 100 µM
TGI [39]: > 100 µM
TGI [40]: > 100 µM
TGI [41]: > 100 µM
TGI [42]: > 100 µM
TGI [43]: > 100 µM
TGI [44]: > 100 µM
TGI [45]: > 100 µM
TGI [46]: > 100 µM
TGI [47]: > 100 µM
TGI [48]: > 100 µM
TGI [49]: > 100 µM
TGI [50]: > 100 µM
TGI [51]: > 100 µM
TGI [52]: > 100 µM
TGI [53]: > 100 µM

O=P1(Oc2ccccc2)N=P(c2ccccc2)(c2ccccc2)C=C(c2ccc(Cl)cc2)N1 (centres undefined)
TGI [54]: 27.9 µM
TGI [2]: 21.9 µM
TGI [3]: 27.6 µM
TGI [4]: 25.1 µM
TGI [5]: 22.2 µM
TGI [55]: 13.6 µM
TGI [6]: 29.6 µM
TGI [7]: 28 µM
TGI [8]: 25.8 µM
TGI [10]: 29.7 µM
TGI [11]: 9.55 µM
TGI [13]: 43.5 µM
TGI [56]: 33.6 µM
TGI [14]: 26.9 µM
TGI [15]: 23 µM
TGI [16]: 29.6 µM
TGI [17]: 17.1 µM
TGI [18]: 24.7 µM
TGI [19]: 20.7 µM
TGI [20]: 28.9 µM
TGI [21]: 26.5 µM
TGI [22]: 22.8 µM
TGI [23]: 15.5 µM
TGI [24]: 25.6 µM
TGI [26]: 10.2 µM
TGI [57]: 29.8 µM
TGI [27]: 25.4 µM
TGI [28]: 19.8 µM
TGI [29]: 30.8 µM
TGI [30]: 20.5 µM
TGI [31]: 21.6 µM
TGI [32]: 29.5 µM
TGI [33]: 21.1 µM
TGI [34]: 21.5 µM
TGI [36]: 16.1 µM
TGI [37]: 32.1 µM
TGI [38]: 26.2 µM
TGI [39]: 26 µM
TGI [40]: 18.8 µM
TGI [41]: 30.5 µM
TGI [42]: 9.31 µM
TGI [43]: 22.4 µM
TGI [45]: 26.6 µM
TGI [46]: 32.4 µM
TGI [47]: 24.2 µM
TGI [48]: 28.2 µM
TGI [49]: 32.2 µM
TGI [50]: 27.5 µM
TGI [51]: 26.8 µM
TGI [52]: 18.5 µM
TGI [53]: 17.1 µM
